Test [1] has as its target T1, mouse vas deferens (Mus musculus, UniProt P32300).
T1 construct: Vasa deferentia were removed from mice; from tissue; host or cells: mouse vas deferens
The experiment in a line: cell-based. It is filed as cell-based.

Test [2] relates to guinea pig ileum. The experiment in a line: Inhibition of electrically stimulated contraction of guinea pig ileum. In kind it is cell-based. The conditions noted are these: Cavia porcellus, mean of (n) experiments, read-out: Guinea Pig lleum ED50.
The target in test [3] is T2, Delta Receptor (Rattus norvegicus, UniProt P33533).
T2 construct: Rat (Sprague-Dawley) brain membranes were prepared; from tissue; host or cells: rat (Sprague-Dawley) brain membranes
The test can be described thus: Delta receptor binding, rat brain membranes. More on the design: species or system rat (Sprague-Dawley).

Test [4] has as its target T3, Mu Receptor (Rattus norvegicus, UniProt P33535).
T3 construct: Rat (Sprague-Dawley) brain membranes were prepared; from tissue; host or cells: rat (Sprague-Dawley) brain membranes
The experiment in a line: Mu receptor binding, rat brain membranes. More on the design: species or system rat (Sprague-Dawley).

Test [5] concerns the target delta receptor (Mus musculus, UniProt P32300). The test can be described thus: Delta opioid receptor agonist activity. The conditions noted are these: in words.
The subject of test [6] is delta-opioid receptor. The experiment in a line: Tail flick test, injection into brain (icv). It is filed as in vivo. The conditions noted are these: mice.
Where [7] appears, read: electrically stimulated, 37° C., mean of (n) experiments, read-out: Mouse Vas Deferens ED50.
Setting [8] is: 125I-[D-Ala2,D-Leu5]enkephalin 0.24 nM with mu-agonist morphiceptin analog, 24° C., 60 min, mean of (n) experiments, read-out: Delta Receptor IC50.
The mark [9] stands for this setting: 125I-[D-Ala2,N-MePhe4,Met(O)ol5]enkephalin 0.1 nM, 24° C., 60 min, mean of (n) experiments, read-out: Mu Receptor IC50.

Where two headings read alike, the source gives them in different places.

T3 sequence (P33535 whole entry): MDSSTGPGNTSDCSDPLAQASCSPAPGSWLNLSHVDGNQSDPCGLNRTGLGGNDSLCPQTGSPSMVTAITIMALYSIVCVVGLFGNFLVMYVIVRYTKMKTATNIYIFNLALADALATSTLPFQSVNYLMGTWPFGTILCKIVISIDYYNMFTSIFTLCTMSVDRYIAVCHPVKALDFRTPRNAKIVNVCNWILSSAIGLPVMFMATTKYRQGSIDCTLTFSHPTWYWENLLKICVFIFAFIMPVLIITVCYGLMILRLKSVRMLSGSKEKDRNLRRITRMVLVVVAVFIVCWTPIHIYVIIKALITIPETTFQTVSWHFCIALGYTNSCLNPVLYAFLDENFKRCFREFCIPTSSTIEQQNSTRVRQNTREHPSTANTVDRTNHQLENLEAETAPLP
T2 sequence (P33533 whole entry): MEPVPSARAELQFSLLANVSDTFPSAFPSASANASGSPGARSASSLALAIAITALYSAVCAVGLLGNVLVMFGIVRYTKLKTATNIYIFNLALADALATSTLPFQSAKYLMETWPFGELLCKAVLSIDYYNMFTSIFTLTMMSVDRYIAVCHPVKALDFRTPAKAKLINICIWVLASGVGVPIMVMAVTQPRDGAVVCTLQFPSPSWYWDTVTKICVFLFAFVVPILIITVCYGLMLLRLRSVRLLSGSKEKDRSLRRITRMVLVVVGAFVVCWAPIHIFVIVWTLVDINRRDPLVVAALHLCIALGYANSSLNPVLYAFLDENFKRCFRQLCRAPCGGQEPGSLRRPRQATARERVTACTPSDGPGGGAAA
T1 sequence (P32300 whole entry): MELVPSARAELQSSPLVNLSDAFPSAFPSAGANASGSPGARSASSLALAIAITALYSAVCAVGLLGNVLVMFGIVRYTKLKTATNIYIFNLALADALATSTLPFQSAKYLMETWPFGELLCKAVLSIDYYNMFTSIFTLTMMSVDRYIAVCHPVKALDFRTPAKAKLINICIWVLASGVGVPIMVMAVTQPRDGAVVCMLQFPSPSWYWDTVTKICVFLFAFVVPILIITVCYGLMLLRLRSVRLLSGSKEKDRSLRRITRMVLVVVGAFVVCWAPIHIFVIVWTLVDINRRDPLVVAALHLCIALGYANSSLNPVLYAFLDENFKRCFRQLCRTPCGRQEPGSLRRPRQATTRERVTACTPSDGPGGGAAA
delta receptor, sequence (P32300 whole entry): as above

On to `C=CCN1C[C@H](C)N([C@H](c2ccc(C(=O)NCCOCCOCCNC(=O)c3ccc([C@H](c4cccc(O)c4)N4C[C@@H](C)N(CC=C)C[C@@H]4C)cc3)cc2)c2cccc(O)c2)C[C@H]1C` (relative stereo) [Example 41, N,N'-((Ethylenedioxy)diethylene)bis(4-((R*)-α-((2S*,5R*)-4-allyl-2,5-dimethyl-1-piperazinyl)-3-hydroxybenzyl)benzamide)], for which the IC50 stood at 13 nM in test [1] (setting [7]), 6.5 nM in test [2], 10 nM in test [3] (setting [8]) and 4 nM in test [4] (setting [9]).

On to `C=CCN1C[C@H](C)N([C@H](c2ccc(C(=O)N(CC)CC)cc2)c2cccc(O)c2)C[C@H]1C` (relative stereo) [Example 6, (±)-4-((αR*)-α-((2S*,5R*)-4-Allyl-2,5-dimethyl-1-piperazinyl)-3-hydroxybenzyl)-N,N-diethylbenzamide], for which the IC50 in test [1] came to 0.2 nM; in test [2], 143 nM; in test [3] (setting [8]), 1.8 nM.

Regarding `C=CCN1C[C@H](C)N(C(c2ccc(C(=O)N(CC)CC)cc2)c2cccc(NC=O)c2)C[C@H]1C` (mixture of isomers) [Example 36, (±)-trans-4-(α-(4-allyl-2,5-dimethyl-1-piperazinyl)-3-formamidobenzyl)-N,N -diethylbenzamide], the IC50 is 2 nM in test [1], 1300 nM in test [2], 9.1 nM in test [3] (setting [8]) and 260 nM in test [4] (setting [9]).

With `CCN(CC)C(=O)c1ccc([C@H](c2cccc(O)c2)N2C[C@H](C)N(C)C[C@@H]2C)cc1` [Example 12, (+)-N,N-diethyl-4-(3-hydroxy-(αR)-α-((2S,5S)-2,4,5-trimethyl-1-piperazinyl)benzyl)benzamide], the IC50 in test [1] is 2 nM; in test [2], greater than 10000 nM; in test [3] (setting [8]) it was 1.2 nM; in test [4] (setting [9]), 150 nM.

Regarding `C=CCN1C[C@H](C)N([C@H](c2ccc(C(=O)NCC(=O)NCC(=O)O)cc2)c2cccc(O)c2)C[C@H]1C` (relative stereo) [Example 25, (±)-N-(4-((αR*)-α-((2S*,5R*)-4-Allyl-2,5-dimethyl-1-piperazinyl)-3-hydroxybenzyl)benzoyl)glycylglycine], the IC50 in test [1] worked out at 2 nM; in test [2], 300 nM; in test [3] (setting [8]), 0.4 nM; in test [4] (setting [9]), 70 nM.

With `C=CCN1C[C@H](C)N([C@@H](c2cccc(O)c2)c2cccc(C(=O)N(CC)CC)c2)C[C@H]1C` (relative stereo) [Example 84, (±)-3-((αR*)-α-((2S*,5R*)-4-allyl-2,5-dimethyl-1-piperazinyl)-3-hydroxybenzyl)-N,N-diethylbenzamide], the figures for the IC50 in test [1], in test [2] and in test [3] (setting [8]) were 8.6 nM, 10 nM and 1.6 nM, respectively.

Consider `C=CCN1C[C@H](C)N([C@H](c2ccc(C(=O)N(CC)CCO)cc2)c2cccc(O)c2)C[C@H]1C` (relative stereo) [Compound J], for which the “delta receptor agonist activity” value in test [5] is “potent delta receptor agonist activity”.

For `C=CCN1C[C@@H](C)N([C@H](c2ccccc2)c2cccc(O)c2)C[C@@H]1C` (relative stereo) [Example 9, (±)-3-((αR*)-α-((2R*,5S*)-4-Allyl-2,5-dimethyl-1-piperazinyl)benzyl)phenol], the IC50 amounted to 40 nM in test [1], 4 nM in test [2], 16 nM in test [3] (setting [8]) and 1.1 nM in test [4] (setting [9]).

`CCN(CC)C(=O)c1ccc([C@H](c2cccc(O)c2)N2C[C@H](C)NC[C@H]2C)cc1` (relative stereo) [Example 15, (±)-4-((αR*)-α-((2R*,5S*)-2,5-Dimethyl-1-piperazinyl)-3-hydroxybenzyl)-N,N-diethylbenzamide]: the IC50 was found to be 4400 nM in test [1], 2700 nM in test [2] and 120 nM in test [4] (setting [9]).

On to `C=CCN1C[C@H](C)N([C@H](c2cccc(O)c2)c2cccs2)C[C@H]1C` [Example 67, (-)-3-((R)-((2S,5R)-4-Allyl-2,5-dimethyl-1-piperazinyl)(2-thienyl)methyl)phenol], for which the IC50 in test [1] (read-out: Mouse Vas Deferens ED50, electrically stimulated, 37° C., mean of (n) experiments) amounted to 20 nM; in test [3] (read-out: Delta Receptor IC50, 125I-[D-Ala2,D-Leu5]enkephalin 0.24 nM with mu-agonist morphiceptin analog, 24° C., 60 min, mean of (n) experiments), 27 nM; in test [4] (read-out: Mu Receptor IC50, 125I-[D-Ala2,N-MePhe4,Met(O)ol5]enkephalin 0.1 nM, 24° C., 60 min, mean of (n) experiments), 0.3 nM.

Take `C=C(C)CN1C[C@H](C)N(C(c2ccc(S(=O)(=O)N(CC)CC)cc2)c2cccc(O)c2)C[C@H]1C` (stereo partly shown) [Compound D]: the “agonist activity in the mouse vas deferens” value in test [1] (in words) was “potent agonist”. In test [6], the “analgesic activity in the tail flick test” value is “provide analgesic activity” and the “reversal of analgesia by injection of naloxone or delta-specific antagonists (ICI 174,864 or naltrindole)” value is on record as “reversible”.

For the compound `C=CCN1C[C@H](C)N([C@H](c2cccc(O)c2)c2cccs2)C[C@H]1C` (relative stereo) [Example 44, (±)-3-((R*)-((2S*,5R*)-4-Allyl-2,5-dimethyl-1-piperazinyl)(2-thienyl)methyl)phenol], the results for the IC50 in test [1], in test [3] (setting [8]) and in test [4] (setting [9]) were 37 nM, 11 nM and 0.8 nM, respectively.

On to `CCN(CC)C(=O)c1ccc(C(c2cccc(O)c2)N2C[C@@H](C)N(C)[C@@H](C)C2)cc1` (relative stereo) [Example 34, N,N-Diethyl-4-(3-hydroxy-α-(cis-3,4,5-trimethyl-1-piperazinyl)benzyl)benzamide], for which the IC50 is greater than 10000 nM in test [1], 3700 nM in test [2], 4 nM in test [3] (setting [8]) and greater than 10000 nM in test [4] (setting [9]).

For `C/C=C\CN1[C@H](C)CN(C(c2ccc(C(=O)N(CC)CC)cc2)c2cccc(O)c2)C[C@@H]1C` (relative stereo) [Example 11, cis-4-(α-(4-((Z)-2-Butenyl)-3,5-dimethyl-1-piperazinyl)-3-hydroxybenzyl)-N,N-diethylbenzamide], the IC50 is greater than 10000 nM in test [1], 3600 nM in test [2] and 600 nM in test [4] (setting [9]).

With `C=CCN1C[C@H](C)N([C@H](c2ccc(S(C)(=O)=O)cc2)c2cccc(O)c2)C[C@H]1C` (relative stereo) [Example 54, (±)-3-((αR*)-α-((2S*,5R*)-4-allyl-2,5-dimethyl-1-piperazinyl)-4-(methylsulfonyl)benzyl)phenol], the IC50 in test [1] is 42 nM; in test [2], 5600 nM; in test [3] (setting [8]) it was 1.3 nM; in test [4] (setting [9]) it was 40 nM.

For `C=CCN1C[C@H](C)N([C@H](c2ccc(C(=O)NCC(=O)NCC(=O)O)cc2)c2cccc(O)c2)C[C@H]1C` (relative stereo) [Compound H], in test [5], the “delta receptor agonist activity” value is on record as “delta receptor agonist activity”.

`C=CCN1C[C@H](C)N([C@H](c2ccc(C(=O)N(CC)CCO)cc2)c2cccc(O)c2)C[C@H]1C` (relative stereo) [Example 60, (±)-4-((αR*))-α-((2S*,5R*)-4-Allyl-2,5-dimethyl-1-piperazinyl)-3-hydroxy-benzyl)-N-ethyl-N-(2-hydroxyethyl)benzamide]: the IC50 stood at 0.3 nM in test [1], 86 nM in test [2], 6.5 nM in test [3] (setting [8]) and 20 nM in test [4] (setting [9]).

Turning to `C=CCN1C[C@H](C)N([C@H](c2ccc(C(=O)N(CC)CC)cc2)c2cccc(O)c2)C[C@H]1C` [Example 6a, (+)-4-((αR)-α-((2S,5R)-4-Allyl-2,5-dimethyl-1-piperazinyl)-3-hydroxybenzyl)-N,N-diethylbenzamide], the IC50 came to 0.17 nM in test [1], 84 nM in test [2] and 1.2 nM in test [3] (setting [8]).

For `C=CCN1C[C@H](C)N([C@H](c2ccc(S(=O)(=O)N(CC)CC)cc2)c2cccc(O)c2)C[C@H]1C` (relative stereo) [Example 59, (±)-4-((αR*)-α-((2S*,5R*)-4-Allyl-2,5-dimethyl-1-piperazinyl)-3-hydroxybenzyl)-N,N-diethylbenzenesulfonamide], the IC50 came out at 2.6 nM in test [1], 1800 nM in test [2], 20 nM in test [3] (setting [8]) and 100 nM in test [4] (setting [9]).

For the compound `CCN(CC)C(=O)c1ccc(C(c2cccc(O)c2)N2C[C@@H](C)N(C)[C@@H](C)C2)cc1` (relative stereo) [Compound E], in test [1] (in words), the “agonist activity in the mouse vas deferens” value was “inactive as an agonist” and the “antagonist activity in the mouse vas deferens” value was “may be a weak antagonist”. In addition, in test [6], the “analgesic activity in the tail flick test” value was “provide analgesic activity” and the “reversal of analgesia by injection of naloxone or delta-specific antagonists (ICI 174,864 or naltrindole)” value is “reversible”.

With `CCN(CC)C(=O)c1ccc(C(C2=C(C)CN(C)C(C)C2)c2cccc(O)c2)cc1` (racemic) [Example 51, (±)-(R*, R*) or (R*, S*)-N,N-diethyl-4-(3-hydroxy-α-(1,2,5,6-tetrahydro-1,3,6-trimethyl-4-pyridyl)benzyl)benzamide], the IC50 worked out at 52 nM in test [1] (setting [7]), 3000 nM in test [2], 2.5 nM in test [3] (setting [8]) and 130 nM in test [4] (setting [9]).

The values are drawn from patent US5658908A (priority 1992, dated 1997).
